Read-outs that look alike come from different tables or passages of the source.
What was measured:
[1] = test system: subjects with eosinophilic asthma
Experimental: (§1) Pulmonary function is measured by performing a spirometry, which measures forced expiratory volume in is (FEV1), the volume of air moved in the first second of exhalation, this is a well-accepted measure of asthma. Forced vital capacity (FVC) is the total volume of air exhaled during the entire forced expiratory volume (FEV) test. The FEV1/FVC ratio is a calculated measure that may provide a more specific measure of bronchoconstriction, independent of processes such as air trapping. Pulmonary function testing can be tested pre-bronchodilator (after waiting a sufficient time so that all bronchodilator medications have cleared) or post-bronchodilator, typically 15-30 minutes after inhaling a short-acting bronchodilator, such as albuterol. Bronchodilator reversibility (BDR) is calculated and assessed by analyzing FEV1 pre- and post-bronchodilator, and calculating the change both as absolute (ml) and percentage change.
Although some of the responsible factors are modifiable, such as suboptimal medication adherence and poor inhaler technique, others reflect intrinsic deficiencies in available asthma pharmacotherapy. This deficiency is particularly apparent in patients prone to severe asthma exacerbations. […] However, all of the biologics require parenteral administration. […] A 4-arm dose ranging placebo-controlled design was chosen to provide a range of drug exposure. Blood eosinophil lowering was chosen as the primary endpoint to facilitate identification of the lowest effective dose for use in future clinical development. The Primary Assessment Period of 12 weeks was chosen to provide adequate time to observe both pharmacodynamic endpoints, such as eosinophil lowering, as well as the clinical endpoints that may improve as a consequence of eosinophil lowering (FEV1, FVC, ACQ-6, ACQ-7, and AQLQ). The 12-week Eosinophil Recovery Period was chosen based on expected recovery to near baseline count in most subjects.

[2] = test system: subjects with eosinophilic asthma; conditions: for Post-Bronchodilator FEV1 Reversibility % change, mean / Post-Bronchodilator FEV1 Reversibility % change, median / Post-Bronchodilator FEV1 Reversibility change, mean / Post-Bronchodilator FEV1 Reversibility change, median / Post-Bronchodilator FEV1 Reversibility observed, mean / Post-Bronchodilator FEV1 Reversibility observed, median: Week 12
Experimental: as §1
Table 10 provides the data for analyzing bronchodilator reversibility, the % improvement in FEV1 pre/post albuterol bronchodilator (same day). The study entry criteria required ≥12% and ≥200 mL at screening. These values are accepted in the diagnosis of asthma.

[3] = test system: eosinophil peroxidase (EPX); conditions: worded as embodiment
Experimental: Eosinophil peroxidase (EPX) is a granule protein uniquely secreted by eosinophils which can be detected and quantified using an enzyme-linked immunosorbent assay (ELISA). EPX is measured from mucosal swabs or sputum samples. […] In embodiments, normal nasal EPX levels are less than about 10 ng/mg of total protein, whereas moderate to severe asthma of the eosinophilic phenotype may be diagnosed as having nasal EPX levels greater than about 10 ng/mg of total protein. […] Normal induced sputum EPX levels may be less than about 200 ng/mL/g recovered sputum, whereas moderate to severe asthma of the eosinophilic phenotype is diagnosed as having induced sputum EPX levels greater than about 200 ng/mL/g recovered sputum.
Evaluation of Efficacy: Blood eosinophil count, changes in pulmonary function (FEV1), Asthma Control Questionnaire (ACQ-6), Asthma Control Questionnaire (ACQ-7), Asthma Quality of Life Questionnaire (AQLQ), exhaled nitric oxide, pharyngeal and nasal eosinophil peroxidase were collected periodically during the study.

[4] = test system: subjects with eosinophilic asthma; remark: listed apart in the source
Text: Evaluation of Safety: Physical examination, vital signs (systolic and diastolic blood pressure, respiratory rate, heart rate, and temperature), body weight, 12-lead ECG, clinical laboratory evaluations (hematology, blood chemistry, and urinalysis), pregnancy testing, adverse event monitoring, and concomitant medication were monitored throughout the study. […] A neutropenia case report form was utilized during the study to capture detailed clinical information concurrent with any laboratory events of neutropenia.

[5] = 75 mg/day, Week 12, efficacy population N = 22
[6] = 150 mg/day, Week 12, efficacy population N = 24
[7] = 300 mg/day, Week 12, efficacy population N = 28

## CCCN[C@@H]1CCc2nc(N)sc2C1 [dexpramipexole, (6R)-2-amino-4,5,6,7-tetrahydro-6-(propylamino) benzothiazole]
[1]; 75 mg/day, Week 4
  Pre-Bronchodilator FVC, % change from Baseline, mean: 2.82%
  Pre-bronchodilator FVC change from Baseline LSM: 0.0925
  Pre-bronchodilator FVC difference versus Placebo LSM: 0.0785
[1]; 75 mg/day, Week 8
  Pre-Bronchodilator FVC, % change from Baseline, mean: 7.17%
  Pre-bronchodilator FVC change from Baseline LSM: 0.155
  Pre-bronchodilator FVC difference versus Placebo LSM: 0.149
[1]; 75 mg/day, Week 12
  Pre-Bronchodilator FVC, % change from Baseline, mean: 7.93%
  Pre-bronchodilator FVC change from Baseline LSM: 0.181
  Pre-bronchodilator FVC difference versus Placebo LSM: 0.140
[1]; 75 mg/day, Week 16 or Week 18
  Pre-Bronchodilator FVC, % change from Baseline, mean: 13.4%
  Pre-bronchodilator FVC change from Baseline LSM: 0.297
  Pre-bronchodilator FVC difference versus Placebo LSM: 0.329
[1]; 150 mg/day, Week 4
  Pre-Bronchodilator FVC, % change from Baseline, mean: 3.54%
  Pre-bronchodilator FVC change from Baseline LSM: 0.122
  Pre-bronchodilator FVC difference versus Placebo LSM: 0.108
[1]; 150 mg/day, Week 8
  Pre-Bronchodilator FVC, % change from Baseline, mean: 5.28%
  Pre-bronchodilator FVC change from Baseline LSM: 0.152
  Pre-bronchodilator FVC difference versus Placebo LSM: 0.146
[1]; 150 mg/day, Week 12
  Pre-Bronchodilator FVC, % change from Baseline, mean: 3.63%
  Pre-bronchodilator FVC change from Baseline LSM: 0.0714
  Pre-bronchodilator FVC difference versus Placebo LSM: 0.0304
[1]; 150 mg/day, Week 16 or Week 18
  Pre-Bronchodilator FVC, % change from Baseline, mean: 7.33%
  Pre-bronchodilator FVC change from Baseline LSM: 0.143
  Pre-bronchodilator FVC difference versus Placebo LSM: 0.175
[1]; 300 mg/day, Week 4
  Pre-Bronchodilator FVC, % change from Baseline, mean: 1.91%
  Pre-bronchodilator FVC change from Baseline LSM: 0.0983
  Pre-bronchodilator FVC difference versus Placebo LSM: 0.0844
[1]; 300 mg/day, Week 8
  Pre-Bronchodilator FVC, % change from Baseline, mean: 11.5%
  Pre-bronchodilator FVC change from Baseline LSM: 0.322
  Pre-bronchodilator FVC difference versus Placebo LSM: 0.316
[1]; 300 mg/day, Week 12
  Pre-Bronchodilator FVC, % change from Baseline, mean: 8.95%
  Pre-bronchodilator FVC change from Baseline LSM: 0.257
  Pre-bronchodilator FVC difference versus Placebo LSM: 0.216
[1]; 300 mg/day, Week 16 or Week 18
  Pre-Bronchodilator FVC, % change from Baseline, mean: 9.11%
  Pre-bronchodilator FVC change from Baseline LSM: 0.267
  Pre-bronchodilator FVC difference versus Placebo LSM: 0.299
[2]; 75 mg/day
  Post-Bronchodilator FEV1 Reversibility % change, mean: −58.7%
  Post-Bronchodilator FEV1 Reversibility % change, median: −49.9%
  Post-Bronchodilator FEV1 Reversibility change, mean: -112 mL
  Post-Bronchodilator FEV1 Reversibility change, median: -55.0 mL
  Post-Bronchodilator FEV1 Reversibility observed, mean: 264 mL
  Post-Bronchodilator FEV1 Reversibility observed, median: 235 mL
[2]; 150 mg/day
  Post-Bronchodilator FEV1 Reversibility % change, mean: −39.8%
  Post-Bronchodilator FEV1 Reversibility % change, median: −9.68%
  Post-Bronchodilator FEV1 Reversibility change, mean: -72.3 mL
  Post-Bronchodilator FEV1 Reversibility change, median: 0 mL
  Post-Bronchodilator FEV1 Reversibility observed, mean: 279 mL
  Post-Bronchodilator FEV1 Reversibility observed, median: 235 mL
[2]; 300 mg/day
  Post-Bronchodilator FEV1 Reversibility % change, mean: −19.6%
  Post-Bronchodilator FEV1 Reversibility % change, median: −19.0%
  Post-Bronchodilator FEV1 Reversibility change, mean: -109 mL
  Post-Bronchodilator FEV1 Reversibility change, median: -50.0 mL
  Post-Bronchodilator FEV1 Reversibility observed, mean: 336 mL
  Post-Bronchodilator FEV1 Reversibility observed, median: 290 mL
[2]; Week 12, 3 DEX arms vs. placebo
  Bronchodilator reversibility: preserved
[3]; daily dose of about 75 mg
  Reduction of the level of nasal EPX: about 36%
[3]; daily dose of about 150 mg
  Reduction of the level of nasal EPX: about 83%
[3]; daily dose of about 300 mg
  Reduction of the level of nasal EPX: about 89%
[4]; 300 mg/day and 150 mg/day doses, KNS-760704-AS201 trial
  Safety and tolerability: Lastly, the excellent safety and tolerability of the above doses in the KNS-760704-AS201 trial and in previous
[4]; across all dose levels (75, 150, 300 mg/day, 12 weeks)
  Tolerability: well-tolerated
Blood eosinophils; [5]
  Subjects with AEC ≤50 cells/pL, %: (22.7%)
  Subjects with AEC ≥50% reduction from Baseline to Week 12, %: (50.07%)
Blood eosinophils; [6]
  Subjects with AEC ≤50 cells/pL, %: (37.5%)
  Subjects with AEC ≥50% reduction from Baseline to Week 12, %: (62.5%)
Blood eosinophils; [7]
  Subjects with AEC ≤50 cells/pL, %: (42.9%)
  Subjects with AEC ≥50% reduction from Baseline to Week 12, %: (57.1%)
Blood eosinophils; Week 12 compared with baseline, up to 300 mg/day
  Reduction in AEC: ≤ 80%
Blood eosinophils; all dose groups
  Dexpramipexole treated subjects with a greater than or equal to 50% reduction in AEC: approximately 60%
Blood eosinophils; blood eosinophil count of ≤50 cells/μL at week 12, dose-dependent
  Number of hematologic responders compared with placebo: significantly increased

From patent US20240041840A1 (Areteia Therapeutics, Inc., priority 2020, published 2024)
